Reference: patent publication US20050222106A1, “Drospirenone-containing preparations for transdermal use” (priority 2004, published 2005)
Entries after “also recorded” stand apart in the source; their conditions may differ.

Experiments:
[1] = Permeation through human skin from the preparation of Example 1; type: in vitro ADME
Procedure: (§1) 200 mg of the preparation made according to Example 1 were applied to bare mouse skin, which were fixed in modified Franz permeation cells as a permeation membrane. The results for the average permeation values for testosterone and drospirenone in μg/cm^2 versus time after application are shown in FIG. 1. The average values are the average of seven experimental runs. The mouse skin used was hairless mouse skin, HsdCpb NMRI-nu/nu, Harlan Bioservice, Walsrode.
(§2) Acceptable Medium for the Franz Cells:
(§3) At 3, 6, 9, 12, 15 and 18 hours samples of 100 μl were removed by an automatic sampling system from the acceptor medium of the Franz cells and injected into an HPLC automatic analyzer.
The preparation from example 1 was tested on human skin (female belly skin from cosmetic reduction, dermatomized at a layer thickness of about 450 μm).
The skin permeation values or mass transport amount for drospirenone and testosterone as a function of time after application of the preparation to the skin are shown in FIG. 2. The open squares indicate the measured permeation values for testosterone in […]. The open circles indicate the permeation values for drospirenone. The vertical lines on the circles and squares are error bars indicating the experimental error.

[2] = Permeation of bare mouse skin in modified Franz permeation cells; type: in vitro ADME; details: aqueous ethanolic vehicle (preparation of Example 1, 200 mg), FIG. 1, average of seven runs
Procedure: as §1, §2, §3
The filled-in circles indicate the measured permeation values for testosterone in FIG. 1. The filled-in squares indicate the permeation values for drospirenone. The vertical lines on the circles and squares are error bars indicating the experimental error.

Compound	Permeation values relative to those of testosterone ([1]; female, human)	Mean cumulative Transport ([1]; female, human, 0 h)	Mean cumulative Transport ([1]; female, human, 3 h)	Mean cumulative Transport ([1]; female, human, 7 h)	Mean cumulative Transport ([1]; female, human, 10 h)	Mean cumulative Transport ([1]; female, human, 24 h)	Mean cumulative Transport ([1]; female, human, 30 h)	Mean cumulative Transport ([1]; female, human, 48 h)	Permeation of mouse skin in vitro compared with testosterone [2]	Mean cumulative Transport ([1]; human skin, preparation of Example 1, time 0 h)	Mean cumulative Transport ([1]; human skin, preparation of Example 1, time 3 h)	Mean cumulative Transport ([1]; human skin, preparation of Example 1, time 7 h)	Mean cumulative Transport ([1]; human skin, preparation of Example 1, time 10 h)	Mean cumulative Transport ([1]; human skin, preparation of Example 1, time 24 h)	Mean cumulative Transport ([1]; human skin, preparation of Example 1, time 30 h)	Mean cumulative Transport ([1]; human skin, preparation of Example 1, time 48 h)
C[C@]12CCC(=O)C=C1[C@@H]1C[C@@H]1[C@H]1[C@@H]3[C@@H]4C[C@@H]4[C@@]4(CCC(=O)O4)[C@@]3(C)CC[C@@H]12 [Drospirenone, drospirenone]	about 40%	0.00 μg/cm^2	0.87 μg/cm^2	2.04 μg/cm^2	2.86 μg/cm^2	8.67 μg/cm^2	12.13 μg/cm^2	19.23 μg/cm^2	approximately the same good extent as testosterone; also recorded: permeation values for testosterone are larger than those for drospirenone							
C[C@]12CC[C@H]3[C@@H](CCC4=CC(=O)CC[C@@]43C)[C@@H]1CC[C@@H]2O [Testosterone]										0.00 μg/cm^2	3.62 μg/cm^2	7.72 μg/cm^2	10.70 μg/cm^2	26.57 μg/cm^2	33.31 μg/cm^2	44.35 μg/cm^2
